Values of other authors as cited in US20080038350A1, “LOW-DOSAGE PERORAL MEDICATION FOR CONTRACEPTION CONTAINING CRYSTALLINE DIENOGEST AND ETHINYL ESTRADIOL” (priority 2006, published 2008).

Tests used:
[1] = tested on: ovulation inhibition; settings: micronized, average particle size of about 3 μm
[2] = single dosage

Row | plasma level, average particle size 3.7 μm versus powder of 22 μm [2] | SMILES | optimum dosage for reliable ovulation inhibition [1] [mg]
1 | – | C[C@]12CCC3=C4CCC(=O)C=C4CC[C@H]3[C@@H]1CC[C@@]2(O)CC#N [dienogest, 17α-cyanomethyl-17β-hydroxyestra-4,9-dien-3-one] | 2
2 | nearly twice as high | C[C@H]1O[C@@H](O[C@H]2[C@@H](O)C[C@H](O[C@H]3[C@@H](O)C[C@H](O[C@H]4CC[C@@]5(C)[C@H](CC[C@@H]6[C@@H]5C[C@@H](O)[C@]5(C)[C@@H](C7=CC(=O)OC7)CC[C@]65O)C4)O[C@@H]3C)O[C@@H]2C)C[C@H](O)[C@@H]1O [digoxin] | –
